PubChem BioAssay AID222 (DTP/NCI, 2004)
“And” between values parts separate entries of the source, which are not always exact repeats. Identical values can stand only once. Inconclusive results and toxic doses are left out.

Tested on: C57BL/6 mice, intracerebral ependymoblastoma, median survival T/C
Experiment: NCI In Vivo Anticancer Drug Screen. Data for tumor model Ependymoblastoma (intracerebral) in C57BL/6 mice
Conditions: endpoint: median survival time, higher = longer survival
Description: The antitumor activity of compounds was measured in mice bearing transplantable tumors. Survival or tumor size were measured and the results are expressed as the measurement made in the treated group (T) divided by the measurement made in the vehicle treated control group (C). The tumor model used in this assay is Ependymoblastoma (intracerebral) in C57BL/6 mice

[1] = dose: 8.0 mg/kg/injection, schedule: Q01DX005 (ip), vehicle: saline with Tween-80
[2] = dose: 8.0 mg/kg/injection, schedule: Q01DX005 (ip), vehicle: saline
[3] = dose: 16.0 mg/kg/injection, schedule: Q01DX005 (ip), vehicle: Klucel (hydroxypropylcellulose) (HPC)
[4] = dose: 16.0 mg/kg/injection, schedule: Q01DX005 (ip), vehicle: saline with Tween-80
[5] = dose: 16.0 mg/kg/injection, schedule: Q01DX005 (ip), vehicle: saline
[6] = dose: 32.0 mg/kg/injection, schedule: Q01DX005 (ip), vehicle: saline

CC(=O)OC(C1CO1)C(OC(C)=O)C1CO1 (stereo not given) was tested, and the T/C (dose: 5.0 mg/kg/injection, schedule: Q01DX005 (ip), vehicle: saline) was 301 % of control, the T/C (dose: 6.0 mg/kg/injection, schedule: Q01DX005 (ip), vehicle: saline) was 365 % of control and the T/C (dose: 7.0 mg/kg/injection, schedule: Q01DX005 (oral), vehicle: saline) was 253 % of control. The T/C (dose: 10.0 mg/kg/injection, schedule: Q01DX005 (ip), vehicle: saline) was 301 % of control, the T/C (dose: 12.0 mg/kg/injection, schedule: Q01DX005 (ip), vehicle: saline) was 365 % of control and the T/C (dose: 14.0 mg/kg/injection, schedule: Q01DX005 (oral), vehicle: saline) was 365 % of control.

For CC(=O)Nc1ccc(/C=N/NC(N)=S)cc1, the T/C (dose: 45.0 mg/kg/injection, schedule: Q01DX005 (ip), vehicle: saline with Tween-80) was 98 % of control, the T/C (dose: 90.0 mg/kg/injection, schedule: Q01DX005 (ip), vehicle: saline with Tween-80) was 93 % of control and 102 % of control and the T/C (dose: 180.0 mg/kg/injection, schedule: Q01DX005 (ip), vehicle: saline with Tween-80) was 92 % of control and 104 % of control. For the same compound, the T/C (dose: 360.0 mg/kg/injection, schedule: Q01DX005 (ip), vehicle: saline with Tween-80) was 96 % of control and 98 % of control and the T/C (dose: 720.0 mg/kg/injection, schedule: Q01DX005 (ip), vehicle: saline with Tween-80) was 105 % of control and 110 % of control.

With Nc1nc([Se])c2ncn(C3OC(CO)C(O)C3O)c2n1 (stereo not given) the T/C (dose: 0.25 mg/kg/injection, schedule: Q01DX005 (ip), vehicle: Klucel (hydroxypropylcellulose) (HPC)) was 103 % of control and 106 % of control, the T/C (dose: 0.5 mg/kg/injection, schedule: Q01DX005 (ip), vehicle: Klucel (hydroxypropylcellulose) (HPC)) was 107 % of control and 112 % of control and the T/C (dose: 1.0 mg/kg/injection, schedule: Q01DX005 (ip), vehicle: Klucel (hydroxypropylcellulose) (HPC)) was 99 % of control and 101 % of control. The T/C (dose: 2.0 mg/kg/injection, schedule: Q01DX005 (ip), vehicle: Klucel (hydroxypropylcellulose) (HPC)) was 100 % of control and 102 % of control and 112 % of control, the T/C (dose: 4.0 mg/kg/injection, schedule: Q01DX005 (ip), vehicle: Klucel (hydroxypropylcellulose) (HPC)) was 88 % of control and 105 % of control and 112 % of control and the T/C (dose: 4.0 mg/kg/injection, schedule: Q01DX005 (ip), vehicle: saline with Tween-80) was 96 % of control. For the same compound, the T/C (dose: 4.0 mg/kg/injection, schedule: Q01DX005 (ip), vehicle: saline) was 100 % of control, the T/C [1] was 100 % of control and the T/C [2] was 98 % of control and 99 % of control. For the same compound, the T/C [3] was 102 % of control and 103 % of control, the T/C [4] was 113 % of control and the T/C [5] was 106 % of control and 111 % of control. The T/C (dose: 27.8 mg/kg/injection, schedule: Q## X006 (ip), vehicle: saline) was 108 % of control, the T/C [6] was 116 % of control and the T/C (dose: 32.0 mg/kg/injection, schedule: Q#A X002 (ip), vehicle: saline) was 95 % of control and 104 % of control. The T/C (dose: 55.7 mg/kg/injection, schedule: Q## X006 (ip), vehicle: saline) was 112 % of control, the T/C (dose: 64.0 mg/kg/injection, schedule: Q#A X002 (ip), vehicle: saline) was 101 % of control and 120 % of control and the T/C (dose: 128.0 mg/kg/injection, schedule: Q#A X002 (ip), vehicle: saline) was 87 % of control.

In the case of O=C(NP(=O)(N1CC1)N1CC1)c1cc(I)ccc1I, the T/C (dose: 8.0 mg/kg/injection, schedule: Q01DX005 (ip), vehicle: Klucel (hydroxypropylcellulose) (HPC)) is reported as 106 % of control, the T/C [1] is reported as 91 % of control and 104 % of control and the T/C [2] is reported as 102 % of control and 107 % of control. The T/C [3] was 113 % of control, the T/C [4] was 101 % of control and 106 % of control and the T/C [5] was 102 % of control and 119 % of control. For the same compound, the T/C (dose: 32.0 mg/kg/injection, schedule: Q01DX005 (ip), vehicle: Klucel (hydroxypropylcellulose) (HPC)) was 120 % of control, the T/C (dose: 32.0 mg/kg/injection, schedule: Q01DX005 (ip), vehicle: saline with Tween-80) was 101 % of control and the T/C [6] was 113 % of control. The T/C (dose: 64.0 mg/kg/injection, schedule: Q01DX005 (ip), vehicle: saline) was 119 % of control and 124 % of control.

CCC(=O)NC1=C(N2CC2C)C(=O)C(NC(=O)CC)=C(N2CC2C)C1=O (stereo not given) was tested, and the T/C (dose: 6.25 mg/kg/injection, schedule: Q01DX009 (ip), vehicle: Klucel (hydroxypropylcellulose) (HPC)) was 105 % of control.
